From article PMC8395335, “Serotonergic–Muscarinic Interaction within the Prefrontal Cortex as a Novel Target to Reverse Schizophrenia-Related Cognitive Symptoms” (International Journal of Molecular Sciences, 2021)

Legend:
MK-801-treated mice [1] = assay: Novel object recognition (NOR) test, MK-801-induced deficits; format: in vivo
Experimental: (§1) Drugs were administered on two different schedules: (1) acute administration of compounds 45 min (WAY100635—5-HT1A antagonist) or 30 min (VU0357017, VU152100, VU0238429, and F15599) before MK-801 (also administered once 30 min before the test in Y-maze or T1 in NOR test); and (2) prolonged administration (once per day for 7 consecutive days) of the compounds and MK-801 with the last administration 24 h before the test (NOR test) or at the day of the test (Y-maze). […] Schedules of administration are presented graphically in Figure 2. The subeffective doses of the compounds for acute administration in the NOR test were chosen based on our previous research (see: [22, 23]) while dose-dependent studies of the activity of the compounds in reversing disruptions in the Y-maze or after prolonged administration along with MK-801 were performed within this study. Different vehicles were used throughout the study: (1) 0.9% NaCl and (2) 10% Tween 80. Vehicles were administered to all animals (e.g., control mice and MK-801-treated mice) on the same schedule as drugs were administered to the appropriate drug-treated groups of mice. Neither solvent exerted effects on animal behavior.
(§2) Male Albino Swiss mice (Charles River, Sulzfeld, Germany) weighing 20–25 g at the beginning of the experiments were used in the studies. The animals were housed in a room with a 12:12 h light-dark cycle at a temperature of 22 ± 1 °C with food and water available ad libitum. The experimental groups consisted of 8–10 animals. All drugs were administered intraperitoneally (i.p.) at a volume of 10 mL/kg. The behavioral experiments were performed by an observer who was blinded to the treatment. The procedures were conducted in accordance with the European Communities Council Directive of 22 September 2010 (2010/63/EU) and Polish legislation acts concerning animal experimentation and were approved by the II Local Ethics Committee by the Maj Institute of Pharmacology, Polish Academy of Sciences in Krakow (15/2020, 240/2020).
(§3) In acute experiments, the tested compounds (alone or in combination) were administered 30 min before MK-801 (0.3 mg/kg), which was administered 30 min before the test or training trial (T1) in the NOR test. In chronic experiments, the tested compounds (alone or in combination) and MK-801 were administered for seven days. Behavioral tests were performed on the eighth day.
The NOR test was performed as described previously. Briefly, the habituation, training and test trial were carried out in a dark room in a black, plastic rectangular arena illuminated with a 355 lux bulb. During the habituation trial, the animals were allowed to explore the arena in the absence of objects (10 min/day for 2 days). The next day, the training (T1) and test (T2) trials were performed. Throughout T1, mice were allowed to freely explore two identical objects (5 min), one of which was subsequently replaced by a novel object in T2 (1 h later, 5 min of exploration). Time spent exploring (i.e., sniffing or touching) the familiar (Tfamiliar) or novel object (Tnovel) was measured by a trained observer, and then the recognition index was calculated for each mouse [(Tnovel − Tfamiliar)/(Tfamiliar + Tnovel)] × 100.

MK-801-treated mice [2] = assay: Y-maze test (spontaneous alternations), MK-801-induced deficits; format: in vivo
Experimental: as §1, §2, §3
The Y-maze was performed using the methods described by Miedel et al. and Kraeuter et al. with minor modifications. A black, wooden Y-shaped apparatus with equal length arms (labeled A, B, or C) spaced 120 apart was used in the behavioral experiment. Visual clues were placed inside the maze and mounted to the back wall of each arm. The experiment was performed in a well-lit room. The mice were placed in the same starting arm and were allowed to freely explore the maze for 8 min. After each trial, the maze was wiped clean. The sequence and the number of arm entries were recorded to calculate the percentage of spontaneous alternations using the following formula: [(Number of alternations)/(Total arm entries − 2)] × 100. An arm entry was scored if the animal entered the arm with all paws. Consecutive entries into three distinct arms were scored as an alternation (e.g., ACB, but not ACA) in which sequences could overlap (e.g., ACBACABAC represents […] alternations).

[3] = Pharmacokinetic analysis of drug-drug interactions (plasma, FC concentration, FC penetration); format: in vivo, mice; conditions: Albino Swiss, mouse, in vivo, 30 min
Experimental: The experiment was performed using the methods described by Bridges et al. and in our previous studies.
The pharmacokinetic analysis was performed in the blood and prefrontal cortex. […] Plasma and FC samples were stored at −80 °C until analysis.
The investigated compounds were administered alone at the top dose (F15599—0.1 mg/kg, VU0357017—5 mg/kg, VU0152100—1 mg/kg, and VU0238429—5 mg/kg) and in combinations of muscarinic ligands at subeffective doses with F15599 at subeffective dose (F15599 + VU0357017 0.05 and 0.15 mg/kg, F15599 + VU0152100 0.05 and 0.05 mg/kg, F15599 + VU0238429 0.05 and 1 mg/kg). The FC and blood were collected on the eighth day, 30 min after administration. All mice were parallelly treated with MK-801 (0.3 mg/kg) for seven consecutive days.
On the day of analysis, frozen whole mouse brain tissues were weighed and homogenized in 1:2 (w/v) volumes of ice-cold acetonitrile containing 0.1% FA and the internal standard mix. Samples were homogenized using a Metal Bead Lysing Matrix, vortexed for 1 min, shaken for 20 min at 4 °C on Thermomixer C, and centrifuged at 14,000× g rpm for 20 min at 4 °C. Finally, 50 µL of supernatant were diluted with 0.1% FA in water (1:1, v/v) and analyzed using HPLC/MS/MS.
The sample extraction of plasma (20 μL) was performed after spiking with the internal standard mix using the protein precipitation method and three volumes of ice-cold acetonitrile containing 0.1% formic acid. The extract was vortexed, incubated on ice for 20 min and centrifuged at 14,000× g rpm for 20 min at 4 °C. The supernatant was diluted with 0.1% FA in water (1:1, v/v) and analyzed by means of HPLC/MS/MS using a QTRAP 4500 (AB Sciex) mass spectrometer in positive ion mode in Multiple Reaction Monitoring (MRM screening) coupled with UHPLC (NEXERA XR, Shimadzu). Chromatographic separation was achieved on a Synergi 4 µm Fusion-RP 80 A 50 × 2 mm (Phenomenex) column at a flow rate of 0.2 mL/min. The gradient program was as follows: 20% B (0.3 min), 20–100% B (1.7 min), 100% B (3 min), 100–20% B (0.1 min), 20% B (2 min), solvent A (95:5:0.1% formic acid in water:methanol) and solvent B (methanol containing 0.1% formic acid). The column temperature was set to 40 °C. Analyst software was used to control the instrument and collect data. The ion transfer tube temperature was 300 °C. The spray voltage, collision energy, declastering potential, and gas parameters were optimized to achieve the maximal response using the test compounds. Selected reaction monitoring was carried out using the transition parameters. Calibration curves were constructed, and a linear response was obtained in the range of 0.25–500 ng/mL (VU357017, VU0152100, and F15599) and 1.25–2500 ng/mL (VU0238429) by spiking known amounts of each compound in blank brain homogenates and plasma. For VU0357017 and F15599 IS VU0152100 was used as internal standard. Sample concentration of internal standard was 100 ng/mL for IS VU0238429 and 50 ng/mL for IS VU0152100.
Brain penetration was calculated as FC/plasma ratio × 100%.

C[C@]12N[C@H](Cc3ccccc31)c1ccccc12 [MK-801]
Disruption in the recognition index (NOR) (MK-801-treated mice [1]; acute MK-801 (0.3 mg/kg) 30 min before T1): induced typical disruption | Disruption in the recognition index (NOR) (MK-801-treated mice [1]; seven days of MK-801 administration): induced a typical disruption | Disruption of spontaneous alternations in the Y-maze (MK-801-treated mice [2]; acute MK-801 (0.3 mg/kg) 30 min before test): induced typical disruption | Disruptive effect on animals' behavior in Y-maze (MK-801-treated mice [2]; prolonged MK-801, test performed 24 h after the last administration): lack of MK-801 disruptive effect

COc1ccc(CNC(=O)c2sc3nc(C)cc(C)c3c2N)cc1 [VU0152100]
Reversal of MK-801-induced deficits in the NOR test (recognition index) (MK-801-treated mice [1]; 7 days with MK-801, 0.1 mg/kg i.p.): activity of VU0152100 was observed | Reversal of MK-801-induced deficits in the NOR test (recognition index) (MK-801-treated mice [1]; 7 days with MK-801, 1 mg/kg): activity of VU0152100 was observed | Reversal of MK-801-induced deficits in the NOR test (recognition index) (MK-801-treated mice [1]; 7 days with MK-801, dose of 0.05): ineffective | Reversal of MK-801-induced disruptions in NOR test by combined administration (MK-801-treated mice [1]; 7 days, F15599 0.05 mg/kg with VU0152100 0.05 mg/kg (subeffective doses)): reversed | Effect of top dose on MK-801-induced deficits in the NOR test (MK-801-treated mice [1]; acute, 1 mg/kg i.p., alone): pro-cognitive effect | Effect of combined administration on MK-801-induced memory deficits in the NOR test (MK-801-treated mice [1]; acute, subeffective doses, F15599 with VU0152100): no effect | Increase of FC penetration after prolonged administration compared to acute [3]: ca. 50% | Increase of FC penetration when administered concomitantly with F15599 [3]: more than 50% | Reversal of MK-801-induced disruptions in Y-maze by combined administration (MK-801-treated mice [2]; 7 days, F15599 0.025 mg/kg with VU0152100 0.05 mg/kg (subeffective doses)): did not reverse | Reversal of MK-801-induced reduction in spontaneous alternations in the Y-maze (MK-801-treated mice [2]; acute, 0.1-5 mg/kg i.p.): No efficacy | Effect of combined administration on spontaneous alternations in the Y-maze test (MK-801-treated mice [2]; acute, F15599 0.1 mg/kg with VU0152100 1 mg/kg, MK-801-treated): no effect

COc1ccccc1N1CCN(CCN(C(=O)C2CCCCC2)c2ccccn2)CC1 [WAY100635]
Effect of WAY100635 on the pro-cognitive effect of muscarinic ligand in the NOR test (MK-801-treated mice [1]; acute, WAY100635 0.1 mg/kg 15 min before VU0152100 (1 mg/kg)): reversed the pro-cognitive effect | Effect of WAY100635 on the pro-cognitive effect of muscarinic ligand in the NOR test (MK-801-treated mice [1]; acute, WAY100635 0.1 mg/kg 15 min before VU0238429 (5 mg/kg)): reversed the pro-cognitive effect | Effect of WAY100635 on the pro-cognitive effect of muscarinic ligand in the NOR test (MK-801-treated mice [1]; acute, WAY100635 0.1 mg/kg 15 min before VU0357017 (5 mg/kg)): reversed the pro-cognitive effect
